Assay results from US8962600B2, “Neuroprotective compounds and their use” (The Medical College of Wisconsin, Inc., priority 2009, dated 2015).

Key:
3-nitrotyrosine (3-NT) = experiment: 3-nitrotyrosine expression in substantia nigra, Western blot and immunostaining; format: in vivo, C57BL/6 mice
Protocol: (§1) For checking inflammatory and oxidative stress markers, mice were gavaged diapocynin (300 mg/kg dose) 1 day before MPTP treatment (pre-treatment) and continued for another 4 days of co-treatment with MPTP. In the sub-acute MPTP regimen, MPTP (25 mg/kg) was injected intraperitoneally once per day from day 2 to day 7. Control mice received saline at the same dosage.
Four days after MPTP treatment, mice were perfused with 4% paraformaldehyde (PFA) and post-fixed with PFA and 30% sucrose, respectively. Next, fixed brains were cut into 30 μm sections and kept in 30% sucrose-ethylene glycol solutions at −20° C. On the day of staining, sections were rinsed with phosphate-buffered saline (PBS) and incubated with different primary antibodies, including anti-IBA-1 (DAKO, Carpinteria, Calif.), anti-GFAP (Millipore, Billerica, Mass.), anti-iNOS (Santa Cruz Biotechnology, Santa Cruz, Calif.), anti-3NT (Millipore), anti-4HNE (R&D Systems, Minneapolis, Minn.) and anti-gp91phox (Santa Cruz Biotechnology) for overnight at 4° C. Appropriate secondary antibodies (Alexa Fluor 488, 594, or 555 from Invitrogen, Carlsbad, Calif.) were used followed by incubation with 10 μg/ml Hoechst 33342 for 5 min at room temperature to stain the nucleus. Sections were viewed under a Nikon inverted fluorescence microscope (model TE-2000U; Nikon, Tokyo, Japan). […]

[1] = test system: inducible nitric oxide synthase (iNOS/NOS2); experiment: iNOS expression in substantia nigra, Western blot and immunostaining; format: in vivo, C57BL/6 mice; settings: MPTP-treated mice that also received diapocynin 300 mg/kg gavage
Protocol: as §1
Four days after MPTP treatment, mice were perfused with 4% paraformaldehyde (PFA) and post-fixed with PFA and 30% sucrose, respectively. Next, fixed brains were cut into 30 μm sections and kept in 30% sucrose-ethylene glycol solutions at −20° C. On the day of staining, sections were rinsed with phosphate-buffered saline (PBS) and incubated with different primary antibodies, including anti-IBA-1 (DAKO, Carpinteria, Calif.), anti-GFAP (Millipore, Billerica, Mass.), anti-iNOS (Santa Cruz Biotechnology, Santa Cruz, Calif.), anti-3NT (Millipore), anti-4HNE (R&D Systems, Minneapolis, Minn.) and anti-gp91phox (Santa Cruz Biotechnology) for overnight at 4° C. Appropriate secondary antibodies (Alexa Fluor 488, 594, or 555 from Invitrogen, Carlsbad, Calif.) were used followed by incubation with 10 μg/ml Hoechst 33342 for 5 min at room temperature to stain the nucleus. Sections were viewed under a Nikon inverted fluorescence microscope (model TE-2000U; Nikon, Tokyo, Japan). Images were captured with a SPOT digital camera (Diagnostic Instruments, Inc., Sterling Heights, Mich.).
Mice were sacrificed 4 days or 7 days after MPTP treatment and substantia nigra tissue was dissected out. Brain lysates containing equal amounts of protein were loaded in each lane and separated on a 10 to 12% SDS polyacrylamide gel, as described previously (48). After the separation, proteins were transferred to a nitrocellulose membrane and nonspecific binding sites were blocked by treating with Li-Cor Odyssey blocking buffer (Li-Cor Biosciences, Lincoln, Nebr.). The membranes were then incubated with different primary antibodies including anti-TH (Millipore), anti-iNOS (Calbiochem), anti-3NT (Millipore) and anti-4HNE (R&D Systems). […]

[2] = test system: tyrosine hydroxylase (TH); experiment: Tyrosine hydroxylase expression in striatum and substantia nigra, Western blot and DAB immunostaining; format: in vivo, C57BL/6 mice
Protocol: Six- to 8-week-old C57BL/6 mice weighing 24 to 28 g were housed in standard conditions of constant temperature (22±1° C.), humidity (relative, 30%), and a 12-h light/dark cycle. Mice were allowed free access to food and water. Use of the animals and protocol procedures were approved and supervised by the Committee on Animal Care at Iowa State University (Ames, Iowa). For neurodegeneration studies, mice either received diapocynin (300 mg/kg dose) by oral gavage for 1 day (pre-treatment before MPTP administration), 5 days (co-treatment with MPTP), or 7 days (post-treatment after MPTP).
DAB immunostaining was performed in striatal and substantia nigra sections as described previously (57). In brief, 1 day or 7 days after final dosing of MPTP, mice were sacrificed and perfused with 4% PFA and post-fixed with PFA and 30% sucrose, respectively. Next, fixed brains were cut into 30 μm sections and kept in 30% sucrose-ethylene glycol solutions at −20° C. On the day of staining, sections were rinsed with PBS and incubated with either anti-TH (rabbit anti-mouse, 1:1800; Calbiochem, Gibstown, N.J.), anti-IBA-1 (goat anti-mouse, 1:1000; Dako), anti-GFAP (mouse anti-mouse, 1:1000; Millipore, Billerica, Mass.), or anti-gp91phox (mouse anti-mouse, 1:500; Santa Cruz Biotechnology) overnight at 4° C. […]

IL-12 = experiment: LPS-induced IL-12 release in primary microglia, LUMINEX immunoassay; format: cell-based, mouse; settings: diapocynin 10 μM, LPS 24 hr
Protocol: Primary microglia were obtained from 1-2 day old C57/b16 mouse pups. Upon collection, whole brains were kept in ice-cold DMEM-F12 medium containing 10% FBS, 1× sodium pyruvate, 1× NEAAs, 100 units pen/strep, and Q. After collection, the brains were placed in 0.25% trypsin-EDTA and incubated at 37° C., with gentle shaking every 5-10 min. After 30 min, the trypsin was removed, and the brains are washed in warmed medium twice. After washing, medium was added to the brains, and the brains were homogenized using gentle pipetting, starting with a 25 ml pipette and moving to smaller pipette tips as the brains were broken up. When the brains were sufficiently homogenized to a single-cell suspension, they were filtered with a 70 μm nylon filter, which allowed microglia and astrocytes to be collected. The resultant cell suspension was plated in T-75 flasks and allowed to grow for 12-14 days at 37° C., 5% CO2. […]
Cytokine levels of BV2 and microglial cells treated with diapocynin were determined by LUMINEX® multiplex immunoassay. […]
Cytokine standards and controls were adjusted to 40 μl volume and the LUMINEX® Samples were run on a LUMINEX® 200 Total System and analyzed with Multiplex Analysis—LUMINEX® Software (Invitrogen, Carlsbad, Calif.).

SMILES: COc1cc(C(C)=O)cc(-c2cc(C(C)=O)cc(OC)c2O)c1O [diapocynin]
- MPTP-induced expression of 3-NT in substantia nigra (3-nitrotyrosine (3-NT); diapocynin 300 mg/kg gavage, MPTP 25 mg/kg i.p.): attenuated
- TH positive cells colocalized with 3-NT (3-nitrotyrosine (3-NT); double-labeling, MPTP-treated mice that also received diapocynin 300 mg/kg): very few
- colocalized cells of iNOS and GFAP in substantia nigra [1]: very few colocalized cells
- colocalized cells of iNOS and IBA-1 in substantia nigra [1]: very few colocalized cells
- staining of iNOS in substantia nigra [1]: marked decrease
- expression of TH in striatum and substantia nigra (Western blot) ([2]; MPTP- and diapocynin-treated mice, 300 mg/kg oral gavage): less reduction
- loss of TH-positive neurons and terminals in striatum and substantia nigra (TH-DAB immunostaining) ([2]; MPTP-treated mice with diapocynin treatment 300 mg/kg oral gavage): substantially prevented
- blocking LPS-induced release of IL-12 (IL-12): very effective
